# Assays:
# Assay type in all cases: in vivo
# [1] = test system: Amaranthus retoflexus (AMARE); assay: B2 Post-Emergence Efficacy—Test 2; details: post-emergence application, 250 g/ha, evaluated after 13 days (Test 2)
# Description: (§1) B2 Post-Emergence Efficacy—Test 2 Seeds of a variety of test species are sown in standard soil in pots:—Solanum nigrum (SOLNI), Amaranthus retoflexus (AMARE), Setaria faberi (SETFA), Echinochloa crus-galli (ECHCG), Ipomoea hederacea (IPOHE), Lolium perenne (LOLPE). After 8 days cultivation (post-emergence) under controlled conditions in a glasshouse (at 24/16° C., day/night; 14 hours light; 65% humidity), the plants are sprayed with an aqueous spray solution derived from the formulation of the technical active ingredient in acetone/water (50:50) solution containing 0.5% Tween 20 (polyoxyethylene sorbitan monolaurate, CAS RN 9005-64-5). Compounds are applied at 250 g/ha. The test plants are then grown in a glasshouse under controlled conditions in a glasshouse (at 24/16° C., day/night; 14 hours light; 65% humidity) and watered twice daily. After 13 days, the test is evaluated for the percentage damage caused to the plant. The biological activities are assessed on a five point scale (5=80-100%; 4=60-79%; 3=40-59%; 2=20-39%; 1=0-19%). A blank value in the table is indicative that the compound was not tested on that species.
# [2] = test system: Echinochloa crus-galli (ECHCG); assay: B2 Post-Emergence Efficacy—Test 2; details: post-emergence application, 250 g/ha, evaluated after 13 days (Test 2)
# Description: as §1
# [3] = test system: Ipomoea hederacea (IPOHE); assay: B2 Post-Emergence Efficacy—Test 2; details: post-emergence application, 250 g/ha, evaluated after 13 days (Test 2)
# Description: as §1
# [4] = test system: Lolium perenne (LOLPE); assay: B2 Post-Emergence Efficacy—Test 2; details: post-emergence application, 250 g/ha, evaluated after 13 days (Test 2)
# Description: as §1
# [5] = test system: Setaria faberi (SETFA); assay: B2 Post-Emergence Efficacy—Test 2; details: post-emergence application, 250 g/ha, evaluated after 13 days (Test 2)
# Description: as §1
# [6] = test system: Solanum nigrum (SOLNI); assay: B2 Post-Emergence Efficacy—Test 2; details: post-emergence application, 250 g/ha, evaluated after 13 days (Test 2)
# Description: as §1
# [7] = test system: Amaranthus retoflexus (AMARE); assay: B5 Pre-Emergence Efficacy—Test 2; details: 250 g/ha, evaluated after 13 days
# Description: (§2) B5 Pre-Emergence Efficacy—Test 2 Seeds of a variety of test species were sown in standard soil in pots: Solanum nigrum (SOLNI), Amaranthus retoflexus (AMARE), Setaria faberi (SETFA), Echinochloa crus-galli (ECHCG), Ipomoea hederacea (IPOHE), Lolium perenne (LOLPE). After cultivation for one day (pre-emergence) under controlled conditions in a glasshouse (at 24/16° C., day/night; 14 hours light; 65% humidity), the plants were sprayed with an aqueous spray solution derived from the formulation of the technical active ingredient in acetone/water (50:50) solution containing 0.5% Tween 20 (polyoxyethelyene sorbitan monolaurate, CAS RN 9005-64-5). Compounds are applied at 250 g/ha. The test plants were then grown in a glasshouse under controlled conditions (at 24/16° C., day/night; 14 hours light; 65% humidity) and watered twice daily. After 13 days, the test is evaluated for the percentage damage caused to the plant. The biological activities are assessed on a five point scale (5=80-100%; 4=60-79%; 3=40-59%; 2=20-39%; 1=0-19%). A blank value in the table is indicative that the compound was not tested on that species.
# [8] = test system: Solanum nigrum (SOLNI); assay: B5 Pre-Emergence Efficacy—Test 2; details: 250 g/ha, evaluated after 13 days
# Description: as §2
# [9] = test system: Echinochloa crus-galli (ECHCG); assay: B5 Pre-Emergence Efficacy—Test 2; parameters: key: 5-point scale: 5=80-100%, 4=60-79%, 3=40-59%, 2=20-39%, 1=0-19% damage; details: 250 g/ha, evaluated after 13 days
# Description: as §2
# [10] = test system: Ipomoea hederacea (IPOHE); assay: B5 Pre-Emergence Efficacy—Test 2; parameters: key: 5-point scale: 5=80-100%, 4=60-79%, 3=40-59%, 2=20-39%, 1=0-19% damage; details: 250 g/ha, evaluated after 13 days
# Description: as §2
# [11] = test system: Lolium perenne (LOLPE); assay: B5 Pre-Emergence Efficacy—Test 2; parameters: key: 5-point scale: 5=80-100%, 4=60-79%, 3=40-59%, 2=20-39%, 1=0-19% damage; details: 250 g/ha, evaluated after 13 days
# Description: as §2
# [12] = test system: Setaria faberi (SETFA); assay: B5 Pre-Emergence Efficacy—Test 2; parameters: key: 5-point scale: 5=80-100%, 4=60-79%, 3=40-59%, 2=20-39%, 1=0-19% damage; details: 250 g/ha, evaluated after 13 days
# Description: as §2
Structure (SMILES),"percentage damage caused to the plant, five point scale, AMARE [1]","percentage damage caused to the plant, five point scale, ECHCG [2]","percentage damage caused to the plant, five point scale, IPOHE [3]","percentage damage caused to the plant, five point scale, LOLPE [4]","percentage damage caused to the plant, five point scale, SETFA [5]","percentage damage caused to the plant, five point scale, SOLNI [6]","Control of weed species after pre-emergence application, AMARE (percentage damage, five point scale) [7]","Control of weed species after pre-emergence application, SOLNI (percentage damage, five point scale) [8]","Control of weed species after pre-emergence application, ECHCG (percentage damage, five point scale) [9]","Control of weed species after pre-emergence application, IPOHE (percentage damage, five point scale) [10]","Control of weed species after pre-emergence application, LOLPE (percentage damage, five point scale) [11]","Control of weed species after pre-emergence application, SETFA (percentage damage, five point scale) [12]"
"Cc1nn(C)c(=O)c(-c2c(F)ccc(Cl)c2/C=C/c2ccc(C3CC3)cc2)c1OC(=O)C(C)C [Compound A-4.038, [5-[3-chloro-2-[(E)-2-(4-cyclopropylphenyl)vinyl]-6-fluoro-phenyl]-1,3-dimethyl-6-oxo-pyridazin-4-yl] 2-methylpropanoate]",1 (1=0-19%),1 (1=0-19%),2 (2=20-39%),1 (1=0-19%),0,5 (5=80-100%),2 (2=20-39%),1 (1=0-19%),0,0,0,0
Cc1cc(CCc2c(Cl)ccc(F)c2-c2c(O)c(C)nn(C)c2=O)ccc1N [Compound A-1.031],5 (5=80-100%),4 (4=60-79%),4 (4=60-79%),4 (4=60-79%),4 (4=60-79%),5 (5=80-100%),3 (3=40-59%),2 (2=20-39%),2 (2=20-39%),1 (1=0-19%),1 (1=0-19%),1 (1=0-19%)
Cc1nn(C)c(=O)c(-c2c(F)ccc(Cl)c2CCc2ccc(C(=O)O)cc2)c1O [Compound A-1.040],3 (3=40-59%),0,0,0,0,3 (3=40-59%),0,0,0,0,0,0
Cc1nn(C)c(=O)c(-c2c(F)ccc(Cl)c2CCc2ccc(O)cc2)c1O [Compound A-1.037],1 (1=0-19%),3 (3=40-59%),5 (5=80-100%),1 (1=0-19%),5 (5=80-100%),5 (5=80-100%),1 (1=0-19%),2 (2=20-39%),2 (2=20-39%),0,0,0
Cc1nn(C)c(=O)c(-c2c(F)ccc(Cl)c2CCc2ccc(S(C)(=O)=O)cc2)c1O [Compound A-1.032],5 (5=80-100%),5 (5=80-100%),5 (5=80-100%),5 (5=80-100%),5 (5=80-100%),5 (5=80-100%),5 (5=80-100%),5 (5=80-100%),5 (5=80-100%),2 (2=20-39%),5 (5=80-100%),5 (5=80-100%)
Cc1nn(C)c(=O)c(-c2c(F)ccc(Cl)c2CCc2ccc(NC(=O)OC(C)(C)C)c(F)c2)c1O [Compound A-1.042],5 (5=80-100%),5 (5=80-100%),3 (3=40-59%),5 (5=80-100%),5 (5=80-100%),5 (5=80-100%),5 (5=80-100%),5 (5=80-100%),2 (2=20-39%),2 (2=20-39%),1 (1=0-19%),5 (5=80-100%)
Cc1nn(C)c(=O)c(-c2c(F)ccc(Cl)c2/C=C/c2cccc(C#N)c2)c1O [Compound A-2.030],3 (3=40-59%),0,4 (4=60-79%),1 (1=0-19%),0,4 (4=60-79%),0,0,0,0,0,0
COC(=O)c1ccc(CCc2c(Cl)ccc(F)c2-c2c(O)c(C)nn(C)c2=O)cc1 [Compound A-1.041],5 (5=80-100%),1 (1=0-19%),2 (2=20-39%),1 (1=0-19%),4 (4=60-79%),5 (5=80-100%),4 (4=60-79%),0,0,0,0,0

# Source: patent publication US12540120B2, “Herbicidal compounds” (SYNGENTA CROP PROTECTION AG, priority 2019, dated 2026)
